Measured values published in ChEMBL document CHEMBL3792312, “Synthesis and docking studies of pyrazine-thiazolidinone hybrid scaffold targeting dormant tuberculosis” (Bioorg Med Chem Lett, 2016).
Converted amounts (≈) assume the structure as drawn.

Key:
[1] = test system: Mycolicibacterium smegmatis; assay: Antitubercular activity against dormant Mycobacterium smegmatis MC2 155 at 10 ug after 12 days by XTT-Menadione assay; assay type: functional, str. MC2 155
[2] = test system: Mycobacterium tuberculosis; assay: Antitubercular activity against dormant Mycobacterium tuberculosis H37Ra at 3 ug after 12 days by XTT-Menadione assay; assay type: functional
Pseudomonas fluorescens [3] = assay: Antibacterial activity against Pseudomonas fluorescens at 3 ug after 8 hrs; assay type: functional
Staphylococcus aureus [4] = assay: Antibacterial activity against Staphylococcus aureus at 3 ug after 12 hrs; assay type: functional
[5] = test system: Mycolicibacterium smegmatis; assay: Antitubercular activity against dormant Mycobacterium smegmatis MC2 155 at 30 ug after 12 days by XTT-Menadione assay; assay type: functional, str. MC2 155
Pseudomonas fluorescens [6] = assay: Antibacterial activity against Pseudomonas fluorescens at 30 ug after 8 hrs; assay type: functional
Escherichia coli [7] = assay: Antibacterial activity against Escherichia coli at 30 ug after 8 hrs; assay type: functional
[8] = test system: Mycobacterium tuberculosis; assay: Antitubercular activity against dormant Mycobacterium tuberculosis H37Ra at 30 ug after 12 days by XTT-Menadione assay; assay type: functional
Escherichia coli [9] = assay: Antibacterial activity against Escherichia coli at 3 ug after 8 hrs; assay type: functional
Escherichia coli [10] = assay: Antibacterial activity against Escherichia coli at 10 ug after 8 hrs; assay type: functional
Bacillus subtilis [11] = assay: Antibacterial activity against Bacillus subtilis at 10 ug after 12 hrs; assay type: functional
Bacillus subtilis [12] = assay: Antibacterial activity against Bacillus subtilis at 30 ug after 12 hrs; assay type: functional
Staphylococcus aureus [13] = assay: Antibacterial activity against Staphylococcus aureus at 30 ug after 12 hrs; assay type: functional
Pseudomonas fluorescens [14] = assay: Antibacterial activity against Pseudomonas fluorescens at 10 ug after 8 hrs; assay type: functional
Bacillus subtilis [15] = assay: Antibacterial activity against Bacillus subtilis at 3 ug after 12 hrs; assay type: functional
Staphylococcus aureus [16] = assay: Antibacterial activity against Staphylococcus aureus at 10 ug after 12 hrs; assay type: functional
[17] = test system: Mycolicibacterium smegmatis; assay: Antitubercular activity against dormant Mycobacterium smegmatis MC2 155 at 3 ug after 12 days by XTT-Menadione assay; assay type: functional, str. MC2 155
[18] = test system: Mycobacterium tuberculosis; assay: Antitubercular activity against dormant Mycobacterium tuberculosis H37Ra at 10 ug after 12 days by XTT-Menadione assay; assay type: functional
[19] = test system: Mycobacterium tuberculosis; assay: Antitubercular activity against dormant Mycobacterium tuberculosis H37Ra after 12 days by XTT-Menadione assay; assay type: functional, organism-based; conditions: 288 h

Compound | inhibition (INH) [1] [%] | inhibition (INH) [2] [%] | inhibition (INH) (Pseudomonas fluorescens [3]) [%] | inhibition (INH) (Staphylococcus aureus [4]) [%] | inhibition (INH) [5] [%] | inhibition (INH) (Pseudomonas fluorescens [6]) [%] | inhibition (INH) (Escherichia coli [7]) [%] | inhibition (INH) [8] [%] | inhibition (INH) (Escherichia coli [9]) [%] | inhibition (INH) (Escherichia coli [10]) [%] | inhibition (INH) (Bacillus subtilis [11]) [%] | inhibition (INH) (Bacillus subtilis [12]) [%] | inhibition (INH) (Staphylococcus aureus [13]) [%] | inhibition (INH) (Pseudomonas fluorescens [14]) [%] | inhibition (INH) (Bacillus subtilis [15]) [%] | inhibition (INH) (Staphylococcus aureus [16]) [%] | inhibition (INH) [17] [%] | inhibition (INH) [18] [%] | MIC [19] [ng/mL]
Nc1nccnc1C(=O)NN1C(=O)CS[C@H]1c1ccc([N+](=O)[O-])cc1 | -28.273 | 39.54 | 37.2 | 16.74 | -10.9967 | -20.68 | 37.49 | 49.69 | 42.143 | 57.79 | -1.56 | -19.53 | -21.02 | 24.31 | 0.25 | -46.62 | 34.28 | 43 | –
Nc1nccnc1C(=O)NN1C(=O)CSC1c1ccc(Cl)cc1Cl (stereo not given) | 55.96 | 64.5 | 14.82 | -35.91 | 33.52 | 7.35 | -146.6 | 63.39 | -35.51 | 38.17 | -11.3 | 3.8 | -52.82 | -6.12 | -13.09 | -26.32 | 42.73 | 68.91 | –
Nc1nccnc1C(=O)NN1C(=O)CSC1c1cccc([N+](=O)[O-])c1 (stereo not given) | -86.9278 | 63.89 | 4.173 | 5.486 | 50.45 | 47.95 | 34.42 | 64.96 | -91.9 | 5.212 | -12.6 | 17.93 | -37.97 | 25.83 | -23.1 | -44.93 | 36.91 | 62.55 | –
CN(C)c1ccc(C2SCC(=O)N2NC(=O)c2nccnc2N)cc1 (stereo not given) | 38.8231 | 63.27 | 35.05 | 31.97 | -93.9118 | 34.38 | 40.76 | 69.04 | 49.71 | 62.03 | 9.92 | 0.43 | 56.34 | 22.64 | 3.21 | 9.5 | 34.15 | 66.92 | –
Nc1nccnc1C(=O)NN1C(=O)CSC1c1ccc(F)cc1 (stereo not given) | -3.707 | 68.04 | 27.83 | -14.5 | 37.72 | 42.8 | 50.12 | 71.96 | 41.47 | 45 | 21.54 | 3.63 | 8.99 | 40.76 | 14.29 | -50.49 | 28.7381 | 67.84 | –
Nc1nccnc1C(=O)NN1C(=O)CSC1c1ccc(Cl)cc1 (stereo not given) | 64.17 | 62.36 | 21.22 | 52.81 | 52.67 | -17.98 | 38.45 | 72.85 | -8.913 | -65.92 | -4.06 | 2.22 | -34.8 | 13.99 | -14.42 | 14.12 | 30.65 | 70.78 | –
Nc1nccnc1C(=O)NN1C(=O)CSC1c1ccc(O)cc1 (stereo not given) | 27.68 | 65.54 | 30.55 | 25.87 | 13.22 | 43.72 | 15.24 | 70.73 | 56.462 | 14.06 | 16.8 | 4.31 | 43.79 | 16.61 | 13.88 | 40.89 | 36.11 | 69.84 | –
Cc1cnc(C(=O)NN2C(=O)CSC2c2ccc(O)cc2)cn1 (stereo not given) | 15.78 | 64.79 | 29.07 | -7.09 | 7.295 | -20.73 | 32.37 | 75.49 | -51.23 | -32.72 | 19.81 | 16.21 | -4.04 | 29.13 | -6.172 | 6.02 | 30.34 | 70.55 | –
COc1ccc(C2SCC(=O)N2NC(=O)c2cnc(C)cn2)cc1OC (stereo not given) | 46.67 | 68.91 | -2.69 | 48.7 | 9.358 | -5.41 | -11.14 | 73.51 | -46.22 | -59.8 | 18.53 | 14.25 | 2.4 | 28.51 | 13.25 | -14.6 | 8.925 | 72.12 | –
Cc1cnc(C(=O)NN2C(=O)CSC2c2ccccc2)cn1 (stereo not given) | 24.96 | 55.04 | 19.67 | -39.23 | 61.3106 | 35.1 | 42.85 | 68.38 | 60.45 | 56.76 | 16.03 | -9.36 | 39.81 | 33.57 | 17.71 | 41.07 | 34.46 | 66.69 | –
COc1ccc(C2SCC(=O)N2NC(=O)c2cnc(C)cn2)cc1 (stereo not given) | 11.4077 | 63.11 | -0.838 | -9.85 | 27.97 | 29.02 | 17.95 | 71.41 | 9.978 | -9.96 | -8.08 | 18.72 | -29.6 | 19.06 | 19.31 | -29.27 | 46.39 | 65.76 | –
Cc1cnc(C(=O)NN2C(=O)CSC2c2ccc(Cl)cc2)cn1 (stereo not given) | 24.29 | 60.85 | 27.78 | -0.64 | -19.6759 | 32.81 | 40.4 | 62.27 | 63.05 | 64.64 | -5.89 | -36.6 | 16.66 | 21.51 | -0.29 | -10.67 | -84.5144 | 61.88 | –
C[C@H]1COC2(CCN(c3nc(=O)c4cc(C(F)(F)F)cc([N+](=O)[O-])c4s3)CC2)O1 [BTZ-043] | – | – | – | – | – | – | – | – | – | – | – | – | – | – | – | – | – | – | 3 (≈ 6.95 nM)
NNC(=O)c1ccncc1 [ISONIAZID] | – | – | – | – | – | – | – | – | – | – | – | – | – | – | – | – | – | – | 75 (≈ 547 nM)
NC(=O)c1cnccn1 [PYRAZINAMIDE] | – | – | – | – | – | – | – | – | – | – | – | – | – | – | – | – | – | – | > 10000
CO[C@H]1/C=C/O[C@@]2(C)Oc3c(C)c(O)c4c(O)c(c(/C=N/N5CCN(C)CC5)c(O)c4c3C2=O)NC(=O)/C(C)=C\C=C\[C@H](C)[C@H](O)[C@@H](C)[C@@H](O)[C@@H](C)[C@H](OC(C)=O)[C@@H]1C [RIFAMPIN] | – | – | – | – | – | – | – | – | – | – | – | – | – | – | – | – | – | – | 2.1 (≈ 2.55 nM)
